Measured values: patent US4335249A, “Herbicidal diphenyl ethers, sulfides, sulfoxides and sulfones” (Rohm and Haas Company, priority 1976, dated 1982)

Columns and labels:
Type in all cases: in vivo
[1] = system: cocklebur (Xanthium pensylvanicum); experiment: Preemergence herbicidal activity, cocklebur; conditions: Xanthium strumarium, pre-emergence, 336 h; for pest or weed control at 2241.7 g/ha: 2 lb/A
Procedure, shortened: (§1)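 Seeds were sown in soil flats and sprayed either right after planting (preemergence) or two weeks after germination (postemergence). Compound in acetone diluted with water was applied at a 50 gal/acre carrier volume at rates in lb/A. About two weeks later, average percent control was scored as percent of plants killed.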

marigold (Tagetes spp.) [2] = experiment: Preemergence herbicidal activity, marigold; conditions: pre-emergence, 336 h; for pest or weed control at 2241.7 g/ha: 2 lb/A
Procedure, shortened: as §1

[3] = system: morningglory (Ipomoca spp.); experiment: Preemergence herbicidal activity, morningglory; conditions: Ipomoea, pre-emergence, 336 h; for pest or weed control at 2241.7 g/ha: 2 lb/A
Procedure, shortened: as §1

[4] = system: tomato (Lycopersicon esculentum); experiment: Preemergence herbicidal activity, tomato; conditions: Solanum lycopersicum, pre-emergence, 336 h, Pre; for pest or weed control at 2241.7 g/ha: 2 lb/A
Procedure, shortened: as §1

[5] = system: velvetleaf (Abutilon theophrasti); experiment: Preemergence herbicidal activity, velvetleaf; conditions: Abutilon theophrasti, pre-emergence, 336 h, Pre; for pest or weed control at 2241.7 g/ha: 2 lb/A
Procedure, shortened: as §1

[6] = system: barnyardgrass (Echinochloa crusgalli); experiment: Preemergence herbicidal activity, barnyardgrass; conditions: Echinochloa crus-galli, pre-emergence, 336 h, Pre; for pest or weed control at 2241.7 g/ha: 2 lb/A
Procedure, shortened: (§2)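 Seeds were sown in soil flats and sprayed either immediately after planting (preemergence) or two weeks after germination (postemergence). The test compound was dissolved in acetone, diluted with water and applied at a carrier volume equivalent to 50 gallons per acre, dosed in pounds per acre (lb/A).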

[7] = system: downybrome (Bromus tectorum); experiment: Preemergence herbicidal activity, downybrome; conditions: Bromus tectorum, pre-emergence, 336 h, Pre; for pest or weed control at 2241.7 g/ha: 2 lb/A
Procedure, shortened: as §1

foxtail (Setaria spp.) [8] = experiment: Preemergence herbicidal activity, foxtail; conditions: Setaria, pre-emergence, 336 h, Pre; for pest or weed control at 2241.7 g/ha: 2 lb/A
Procedure, shortened: as §1

[9] = system: yellow nutsedge (Cyperus esculentus); experiment: Preemergence herbicidal activity, yellow nutsedge; conditions: Cyperus, pre-emergence, 336 h; for pest or weed control at 2241.7 g/ha: 2 lb/A
Procedure, shortened: as §1

wild oats (Avena fatua) [10] = experiment: Preemergence herbicidal activity, wild oats; conditions: Avena fatua, pre-emergence, 336 h, Pre, read-out: % control, Wild oat; for pest or weed control at 2241.7 g/ha: 2 lb/A
Procedure, shortened: as §1

[11] = system: cocklebur (Xanthium pensylvanicum); experiment: Postemergence herbicidal activity, cocklebur; conditions: Xanthium strumarium, post-emergence, 336 h; for pest or weed control at 2241.7 g/ha: 2 lb/A
Procedure, shortened: as §1

marigold (Tagetes spp.) [12] = experiment: Postemergence herbicidal activity, marigold; conditions: post-emergence, 336 h; for pest or weed control at 2241.7 g/ha: 2 lb/A
Procedure, shortened: as §1

[13] = system: morningglory (Ipomoca spp.); experiment: Postemergence herbicidal activity, morningglory; conditions: Ipomoea, post-emergence, 336 h; for pest or weed control at 2241.7 g/ha: 2 lb/A
Procedure, shortened: as §1

[14] = system: tomato (Lycopersicon esculentum); experiment: Postemergence herbicidal activity, tomato; conditions: Solanum lycopersicum, post-emergence, 336 h, Post; for pest or weed control at 2241.7 g/ha: 2 lb/A
Procedure, shortened: as §1

[15] = system: velvetleaf (Abutilon theophrasti); experiment: Postemergence herbicidal activity, velvetleaf; conditions: Abutilon theophrasti, post-emergence, 336 h; for pest or weed control at 2241.7 g/ha: 2 lb/A
Procedure, shortened: as §2

[16] = system: barnyardgrass (Echinochloa crusgalli); experiment: Postemergence herbicidal activity, barnyardgrass; conditions: Echinochloa crus-galli, post-emergence, 336 h, Post; for pest or weed control at 2241.7 g/ha: 2 lb/A
Procedure, shortened: as §2

[17] = system: downybrome (Bromus tectorum); experiment: Postemergence herbicidal activity, downybrome; conditions: Bromus tectorum, post-emergence, 336 h, Post; for pest or weed control at 2241.7 g/ha: 2 lb/A
Procedure, shortened: as §1

foxtail (Setaria spp.) [18] = experiment: Postemergence herbicidal activity, foxtail; conditions: Setaria, post-emergence, 336 h, Post; for pest or weed control at 2241.7 g/ha: 2 lb/A
Procedure, shortened: as §1

[19] = system: yellow nutsedge (Cyperus esculentus); experiment: Postemergence herbicidal activity, yellow nutsedge; conditions: Cyperus, post-emergence, 336 h; for pest or weed control at 2241.7 g/ha: 2 lb/A
Procedure, shortened: as §1

wild oats (Avena fatua) [20] = experiment: Postemergence herbicidal activity, wild oats; conditions: Avena fatua, post-emergence, 336 h, Post, read-out: % control, Wild oat; for pest or weed control at 2241.7 g/ha: 2 lb/A
Procedure, shortened: as §1

| SMILES | pest or weed control at 2241.7 g/ha [1] | pest or weed control at 2241.7 g/ha (marigold (Tagetes spp.) [2]) | pest or weed control at 2241.7 g/ha [3] | pest or weed control at 2241.7 g/ha [4] | pest or weed control at 2241.7 g/ha [5] | pest or weed control at 2241.7 g/ha [6] | pest or weed control at 2241.7 g/ha [7] | pest or weed control at 2241.7 g/ha (foxtail (Setaria spp.) [8]) | pest or weed control at 2241.7 g/ha [9] | pest or weed control at 2241.7 g/ha (wild oats (Avena fatua) [10]) | pest or weed control at 2241.7 g/ha [11] | pest or weed control at 2241.7 g/ha (marigold (Tagetes spp.) [12]) | pest or weed control at 2241.7 g/ha [13] | pest or weed control at 2241.7 g/ha [14] | pest or weed control at 2241.7 g/ha [15] | pest or weed control at 2241.7 g/ha [16] | pest or weed control at 2241.7 g/ha [17] | pest or weed control at 2241.7 g/ha (foxtail (Setaria spp.) [18]) | pest or weed control at 2241.7 g/ha [19] | pest or weed control at 2241.7 g/ha (wild oats (Avena fatua) [20]) | further results |
| --- | --- | --- | --- | --- | --- | --- | --- | --- | --- | --- | --- | --- | --- | --- | --- | --- | --- | --- | --- | --- | --- |
| CCOC(=O)C=CCOc1ccc(Oc2ccc(C(F)(F)F)cc2Cl)cc1 [Example 30] | 0% | 0% | 0% | 0% | 0% | 60% | 0% | 60% | 0% | 0% | 0% | 0% | 0% | 30% | 0% | 0% | 0% | 100% | 0% | 30% |  |
| CCOC(=O)C(CC)Oc1ccc(Oc2ccc(C(F)(F)F)cc2Cl)cc1 (centres unmarked) [Example 20] | 0% | 0% | 0% | 0% | 0% | 99% | 90% | 100% | 0% | 40% | 0% | 0% | 0% | 30% | 50% | 100% | 30% | 100% | 20% | 100% |  |
| CCOC(=O)C(C)Oc1ccc([S+]([O-])c2ccc(C(F)(F)F)cc2)cc1 (centres unmarked) [Example 51] |  |  |  |  |  |  |  |  |  |  |  |  |  |  |  |  |  |  |  |  | pest or weed control at 4483.4 g/ha ([1]; 4 lb/A): 0%; pest or weed control at 4483.4 g/ha (marigold (Tagetes spp.) [2]; 4 lb/A): 0%; pest or weed control at 4483.4 g/ha ([3]; 4 lb/A): 0%; pest or weed control at 4483.4 g/ha ([4]; 4 lb/A): 0%; pest or weed control at 4483.4 g/ha ([5]; 4 lb/A): 0%; pest or weed control at 4483.4 g/ha ([6]; 4 lb/A): 0%; pest or weed control at 4483.4 g/ha ([7]; 4 lb/A): 0%; pest or weed control at 4483.4 g/ha (foxtail (Setaria spp.) [8]; 4 lb/A): 0%; pest or weed control at 4483.4 g/ha ([9]; 4 lb/A): 0%; pest or weed control at 4483.4 g/ha (wild oats (Avena fatua) [10]; 4 lb/A): 0%; pest or weed control at 4483.4 g/ha ([11]; 4 lb/A): 0%; pest or weed control at 4483.4 g/ha (marigold (Tagetes spp.) [12]; 4 lb/A): 0%; pest or weed control at 4483.4 g/ha ([13]; 4 lb/A): 0%; pest or weed control at 4483.4 g/ha ([14]; 4 lb/A): 0%; pest or weed control at 4483.4 g/ha ([15]; 4 lb/A): 0%; pest or weed control at 4483.4 g/ha ([16]; 4 lb/A): 20%; pest or weed control at 4483.4 g/ha ([17]; 4 lb/A): 0%; pest or weed control at 4483.4 g/ha (foxtail (Setaria spp.) [18]; 4 lb/A): 0%; pest or weed control at 4483.4 g/ha ([19]; 4 lb/A): 0%; pest or weed control at 4483.4 g/ha (wild oats (Avena fatua) [20]; 4 lb/A): 20% |
| CCCCCCOC(=O)C(C)Oc1ccc(Oc2ccc(C(F)(F)F)cc2Cl)cc1 (centres unmarked) [Example 36] | 0% | 0% | 0% | 0% | 0% | 100% | 0% | 100% | 0% | 0% | 0% | 0% | 0% | 0% | 0% | 100% | 60% | 100% | 0% | 100% |  |
